Where two headings read alike, the source gives them in different places. Marks after values point to notes of the source that are not given here.
How the values were obtained:
[1] = tested on: older patients with symptomatic heart failure; conditions: for hospitalized overall for any reason: 48-week study observation period, p=0.018; for died of progressive heart failure: number of patients in each treatment group; for sudden cardiac death: p=0.043; for female patients died: subpopulation of female patients: of 118 losartan-treated, of 122 captopril-treated; for patients classified as New York Heart Association Class I or II at the end of the study: week 48, versus 66 percent (losartan) and 64 percent (captopril) at baseline
Text: The study was approved by institutional review boards at each site; all patients gave written informed consent. An independent Data and Safety Monitoring Committee monitored the progress of the study. See Pitt B, Chang P, Timmermans P. Angiotensin II receptor antagonists in heart failure: Rationale and design of the Evaluation of Losartan in the Elderly (ELITE) Trial. Cardiovascular Drugs and Therapy 1995; 9: 693-700.
A detailed description of enrollment and exclusion criteria and study design has been presented previously. See Pitt B, Chang P, Timmermans P. Angiotensin II receptor antagonists in heart failure: Rationale and design of the Evaluation of Losartan in the Elderly (ELITE) Trial. Cardiovascular Drugs and Therapy 1995; 9: 693-700.
Titration generally occurred at 7-day intervals as tolerated. Treatment with all other concomitant cardiovascular therapies was permitted with the exception of open-label ACE inhibitors. Randomized patients were stratified by age (less than 70 and 70 years or greater).
Clinical assessments were performed weekly during titration and at three-month intervals thereafter. Laboratory evaluations were performed at weeks three, six, and twelve, and at three month intervals thereafter.
See Example 2) Hypotension-related symptoms, clinically important serum potassium increases (≥ 0.5 mEq/L), and cough, all originally secondary endpoints, were moved to tertiary endpoints. All deaths (including cause of death) and hospitalizations were adjudicated by an independent Clinical Endpoint Adjudication Committee, blinded to study treatment (see panel for mortality classification). Other prospectively-defined measures included myocardial infarction/hospitalization for unstable angina, worsening of heart failure, New York Heart Association functional classification, discontinuation from the study due to study drug intolerance, changes in neurohormonal profile.
• Sudden Cardiac Death: Death occurring without warning or within 1 hour of symptoms • Death due to Progressive Heart Failure: Death preceded by worsening signs and/or symptoms of heart failure, including cardiogenic shock • Fatal Myocardial Infarction: Death associated with autopsy-verified myocardial infarction or death within 28 days of a hospital-verified acute myocardial infarction provided no other cardiac or non-cardiac cause of death is found • Death due to Other Cardiac Causes: Death due to other cardiac causes, such as arrhythmia • Death due to Other Vascular Causes: Death due to vascular events such as stroke, pulmonary embolus, ruptured aneurysm, etc. • Death due to non-cardiovascular causes: Death not due to any cardiac or vascular events
The power and sample-size estimates for this study have been described. See Pitt B, Chang P, Timmermans P. Angiotensin II receptor antagonists in heart failure: Rationale and design of the Evaluation of Losartan in the Elderly (ELITE) Trial. Cardiovascular Drugs and Therapy 1995; 9: 693-700. Analysis of renal dysfunction (increases in serum creatinine) was based upon a modified intent-to-treat population; i.e., all patients were analyzed according to their randomization group, and an endpoint was declared only if initial and confirmatory elevations occurred while on double-blind therapy. Patients who discontinued from the study without meeting this endpoint were censored in the time-to-event analysis at the time of study discontinuation.
Analyses of deaths and heart failure hospitalizations (adjudicated endpoints) were based on an intent-to-treat population; all patients discontinued prematurely were followed through the specified 48-week period of the study. Patients not meeting the endpoint were censored in the time-to-event analysis either at the time of study completion (for patients who completed) or at the end of the 48-week follow-up period (for patients who discontinued).
For all time-to-event data, survival analyses were based upon the log-rank test.

[2] = tested on: patients with symptomatic heart failure; assay: Meta-analysis of clinical events, Protocols A & B (Peto-modified Mantel-Haenszel method); type: in vivo; conditions: for CHF Hospitalization, Odds Ratio / Death, Odds Ratio: Meta-analysis Protocols A & B, odds in placebo group relative to losartan group
Experimental: This report summarizes the results of the Meta-analysis performed (as proposed in the Data Analysis Plan) on the observed mortality and congestive heart failure (CHF) hospitalization across these two studies. The mortality and CHF hospitalization were not predefined endpoints in the protocols but it was intended that they be analyzed as a part of safety. Thus results from these analyses should not be interpreted as a test of significance as there were no predefined hypotheses corresponding to these safety parameters. […] Odds ratio's with 95% confidence intervals have been provided for these variables. Peto-modified Mantel-Haenszel (Fleiss, J.L., Statistical Methods for Rates and Proportions, Wiley, NY, 1981.) method was used to carry out the Meta-analysis of death and CHF hospitalization rates in the two 12 week exercise studies. This method assumes homogeneity across the studies and provides a test for heterogeneity. […] Since the results from protocols A and B are consistent, a safety Meta-analysis as proposed in the Data Analysis Plan has been performed. Homogeneity between the two studies with respect to odds ratio's for death and CHF hospitalization was found.

[3] = tested on: patients with symptomatic heart failure; assay: Exercise study Protocol A: 12-week placebo-controlled study of losartan, clinical events; type: in vivo; conditions: for CHF Hospitalization (during DB) / Death: 12 weeks; for CHF Hospitalization (during DB): one patient hospitalized 2 days after discontinuation included; for Death: during double-blind therapy or related to SAE during double-blind
Text: (§1) Protocols A & B were, multicenter, double-blind, randomized, parallel, placebo-controlled studies to investigate the effects of losartan on the exercise capacity and clinical status of patients over the age of 18 with symptomatic heart failure.
(§2) Approximately three hundred and fifty (350) patients with symptomatic heart failure (NYHA Functional Class II-IV, at least 50% Class III-IV) and left ventricular ejection fraction ≤40% were randomized to receive either losartan or placebo once daily for 12 weeks in each study. Following a minimum 15-day baseline placebo period, during which a minimum of 5 and maximum of 8 sets of baseline exercise tests (treadmill exercise test and 6-minute walk test) were performed, patients were randomized to treatment with losartan or placebo in a 2:1 ratio, respectively. According to the protocol's, patients must not have received an ACE-inhibitor for at least 6 weeks prior to the third baseline exercise test visit. Treatment with an ACE-inhibitor was not allowed at any time during these studies.
(§3) This report summarizes the results of the Meta-analysis performed (as proposed in the Data Analysis Plan) on the observed mortality and congestive heart failure (CHF) hospitalization across these two studies. The mortality and CHF hospitalization were not predefined endpoints in the protocols but it was intended that they be analyzed as a part of safety. Thus results from these analyses should not be interpreted as a test of significance as there were no predefined hypotheses corresponding to these safety parameters. […] Odds ratio's with 95% confidence intervals have been provided for these variables.
(§4) Peto-modified Mantel-Haenszel (Fleiss, J.L., Statistical Methods for Rates and Proportions, Wiley, NY, 1981.) method was used to carry out the Meta-analysis of death and CHF hospitalization rates in the two 12 week exercise studies. This method assumes homogeneity across the studies and provides a test for heterogeneity.
A total of three hundred and fifty one (351) patients were enrolled in the protocol A study; 237 patients were randomized to receive losartan and 114 patients were randomized to receive placebo. There were 4 (3.5%) deaths in the placebo group as compared to 4 (1.7%) in the losartan group during the double-blind therapy or as related to serious adverse events (AE) during double-blind. Additionally there were 10 (8.8%) CHF hospitalizations in the placebo group as compared to 10 (4.2%) in the losartan group during the double-blind therapy or as related to serious AE during double-blind. One patient included in the losartan group discontinued due to worsening HF and was hospitalized 2 days after discontinuation from double-blind period.

[4] = tested on: patients with symptomatic heart failure; assay: Exercise study Protocol B: 12-week placebo-controlled study of losartan, clinical events; type: in vivo; conditions: for CHF Hospitalization (during DB) / Death: 12 weeks; for Death: during double-blind therapy or related to Serious AE during double-blind
Text: as §1, §2, §3, §4
A total of three hundred and eighty five (385) patients were enrolled in the protocol B exercise study; 254 patients were randomized to receive losartan and 131 patients were randomized to receive placebo. There were 9 (6.9%) deaths in the placebo group as compared to 3 (1.2%) in the losartan group during the double-blind therapy or as related to serious AE during double-blind. Additionally there were 7 (5.3%) CHF hospitalizations in the placebo group as compared to 5 (2.0%) in the losartan group during the double-blind therapy or as related to serious AE during double-blind.

[5] = of 352 losartan-treated, of 370 captopril-treated patients
[6] = losartan compared to captopril, controlled for age category
[7] = losartan compared to captopril, negative = increase in risk
[8] = number of patients of 237 randomized to losartan
[9] = odds in placebo group relative to losartan group
[10] = number of patients of 254 randomized to losartan

C[C@H](CS)C(=O)N1CCC[C@H]1C(=O)O [Captopril, captopril, reference compound]
hospitalized overall for any reason ([1]; number of patients): 119 patients
hospitalized overall for any reason [1]: 32.2%
incidence of heart failure hospitalizations ([1]; 48 weeks): 5.7%
incidence of death due to progressive heart failure ([1]; human, in vivo): less than one
Cause of death: Cardiovascular, Fatal Myocardial Infarction ([1]; intent-to-treat, 48 weeks): 4 ( 1.1) number (percent) of patients
Cause of death: Cardiovascular, Other Vascular ([1]; intent-to-treat, 48 weeks): 5 ( 1.4) number (percent) of patients
Cause of death: Cardiovascular, Progressive Heart Failure ([1]; intent-to-treat, 48 weeks): 1 ( 0.3) number (percent) of patients
Cause of death: Cardiovascular, Sudden Death ([1]; intent-to-treat, 48 weeks): 14 ( 3.8) number (percent) of patients
Cause of death: Non-cardiovascular ([1]; intent-to-treat, 48 weeks): 8 ( 2.2) number (percent) of patients
Death and/or Hospitalization for Heart Failure ([1]; intent-to-treat, 48 weeks): 49 (13.2) number (percent) of patients
Hospitalization for Heart Failure ([1]; intent-to-treat, 48 weeks): 21 ( 5.7) number (percent) of patients
total mortality ([1]; intent-to-treat, 48 weeks): 32 ( 8.7) number (percent) of patients
Fatal myocardial infarction ([1]; number of patients): four
died of progressive heart failure [1]: one
total mortality ([1]; number of patients, p=0.035): 32 patients
sudden cardiac death ([1]; number of patients): 14 patients
death and/or heart failure hospitalizations [1, 5]: 49 patients
death and/or heart failure hospitalizations ([1]; percent of patients, p=0.075): 13.2%
female patients died [1]: 8 patients
patients classified as New York Heart Association Class I or II at the end of the study [1]: 82%

CCCCc1nc(Cl)c(CO)n1Cc1ccc(-c2ccccc2-c2nn[nH]n2)cc1 [Losartan]
hospitalized overall for any reason ([1]; number of patients): 86 patients
hospitalized overall for any reason [1]: 24.4%
incidence of heart failure hospitalizations ([1]; 48 weeks): 5.7%
Single rises of serum creatinine ≥0.3 mg/dL, risk reduction ([1]; human, in vivo): 14%
incidence of death due to progressive heart failure ([1]; human, in vivo): less than one
patients discontinued for renal function reason ([1]; human, in vivo): less than 2%
persistent increases in serum creatinine ≥0.3 mg/dL from baseline ([1]; human, in vivo): 10.5%
tolerability ([1]; human, in vivo): better tolerated compared to captopril
Cause of death: Cardiovascular, Fatal Myocardial Infarction ([1]; intent-to-treat, 48 weeks): 1 (0.3) number (percent) of patients
Cause of death: Cardiovascular, Other Vascular ([1]; intent-to-treat, 48 weeks): 5 (1.4) number (percent) of patients
Cause of death: Cardiovascular, Progressive Heart Failure ([1]; intent-to-treat, 48 weeks): 1 (0.3) number (percent) of patients
Cause of death: Cardiovascular, Sudden Death ([1]; intent-to-treat, 48 weeks): 5 (1.4) number (percent) of patients
Cause of death: Non-cardiovascular ([1]; intent-to-treat, 48 weeks): 5 (1.4) number (percent) of patients
Death and/or Hospitalization for Heart Failure ([1]; intent-to-treat, 48 weeks): 33 (9.4) number (percent) of patients
Hospitalization for Heart Failure ([1]; intent-to-treat, 48 weeks): 20 (5.7) number (percent) of patients
total mortality ([1]; intent-to-treat, 48 weeks): 17 (4.8) number (percent) of patients
Death and/or Hospitalization for Heart Failure, RISK REDUCTION (95% CI) [1, 6]: 0.32 (- 0.04, 0.55)
Fatal Myocardial Infarction, RISK REDUCTION (95% CI) [1, 6]: 0.76 (- 0.83, 0.97)
Hospitalization for Heart Failure, RISK REDUCTION (95% CI) [1, 6]: 0.04 (- 0.74, 0.47)
Non-cardiovascular death, RISK REDUCTION (95% CI) [1, 6]: 0.35 (- 0.94, 0.78)
Sudden Death, RISK REDUCTION (95% CI) [1, 6]: 0.64 ( 0.03, 0.86)
Total Mortality, RISK REDUCTION (95% CI) [1, 6]: 0.46 ( 0.05, 0.69)
Death from Other Vascular causes, RISK REDUCTION (95% CI) [1, 7]: -0.03 (- 2.63, 0.71)
Death from Progressive Heart Failure, RISK REDUCTION (95% CI) [1, 7]: -0.11 (-20.23, 0.94)
decrease in total mortality (lower risk of death) ([1]; losartan versus captopril, 48 weeks, P=0.035): 46%
Fatal myocardial infarction ([1]; number of patients): one
died of progressive heart failure [1]: one
total mortality ([1]; number of patients, p=0.035): 17 patients
sudden cardiac death ([1]; number of patients): five
death and/or heart failure hospitalizations [1, 5]: 33 patients
death and/or heart failure hospitalizations ([1]; percent of patients, p=0.075): 9.4%
female patients died [1]: 9 patients
patients classified as New York Heart Association Class I or II at the end of the study [1]: 80%
CHF Hospitalization, Odds Ratio [2]: 2.4*
Death, Odds Ratio [2]: 3.5*
CHF Hospitalization, Odds Ratio ([2]; listed as losartan): 2.4
Death, Odds Ratio ([2]; listed as losartan): 3.5
CHF Hospitalization (during double-blind) ([2]; Protocols A & B combined): 3.1% ^a
Death ([2]; Protocols A & B combined, during double-blind therapy or related to Serious AE): 1.4%
CHF Hospitalization (during DB) [3]: 4.2%^a
CHF Hospitalization (during DB) ([3]; listed as losartan): 4.2%
Death [3]: 1.7%
Death ([3]; listed as losartan): 1.7%
CHF hospitalizations [3, 8]: 10
deaths [3, 8]: 4
CHF Hospitalization, Odds Ratio [3, 9]: 2.2
Death, Odds Ratio [3, 9]: 2.1
CHF Hospitalization (during DB) [4]: 2.0%
CHF Hospitalization (during DB) ([4]; listed as losartan): 2.0%
Death [4]: 1.2%
Death ([4]; listed as losartan): 1.2%
CHF hospitalizations [4, 10]: 5
deaths [4, 10]: 3
CHF Hospitalization, Odds Ratio [4, 9]: 2.7
Death, Odds Ratio [4, 9]: 5.6*
Death, Odds Ratio ([4]; odds in placebo group relative to losartan group, listed as losartan): 5.6

Source: EP0966282B1, “USE OF THE ANGIOTENSIN II ANTAGONISTS LOSARTAN AND EXP-3174 TO TREAT SYMPTOMATIC HEART FAILURE” (priority 1997, dated 1998)
